Results on one compound are retold here after EP0475413B1, “Carbocyclic nucleoside analogs useful as immunosuppressants” (HOECHST MARION ROUSSEL, INC., priority 1990, dated 1992).

Each structure is given as a SMILES string. Counter-ions that a name gives are not always drawn.

In test [1] the test system is Rat peritoneal macrophages. Kind of test: Inhibition of priming of rat peritoneal macrophages, Superoxide Anion (O2-) assay. It counts as cell-based. Particulars: Peritoneal macrophage, opsonized zymosan (3 mg/mL) as stimulus, rrIFN-γ (1000Units/mL), compound 0 to 1000µM, superoxide anion readout, read-out: IC₅₀ (inhibits the priming of rat macrophages in vitro). The method, then: Rat peritoneal macrophages were isolated and grown in cell culture essentially as described by Edwards et al. [Science 239, 769 (1988)]. Macrophages were incubated along with opsonized zymosan (3 mg/mL), which acts as a particulate stimulus, and recombinant rat γ-interferon (rrIFN-γ)(1000Units/mL), which acts as an activating lymphokine, in the presence of various concentrations of (1R,3S)-Cis-1-(9-adenyl)-3-hydroxy-4-cyclopentene (0 to 1000µM). The degree of macrophage priming was measured using the Superoxide Anion (O₂⁻) assay as described by Edwards et al. [Science 239, 769 (1988)].

A further test deals with rat PMNs. The test is described as follows: Inhibition of rrIFN-γ priming of rat PMN, Superoxide Anion (O2-) assay. It counts as cell-based. The following applies: PMNs from rat air pouch elicited with rHuIL-1 (25ng/pouch); PMA (200ng/mL) as stimulus, rrIFN-γ (1000 Units/mL); compound 0 to 1000µM; superoxide anion readout; read-out: IC₅₀ (inhibits the rrIFN-γ priming of rat PMN in vitro). The method, then: The rat air pouch model of inflammation was used to obtain rat PMNs using 25ng/pouch of recombinant human interleukin-1 (rHuIL-1) to elicit the cells essentially according to the method of Esser et al. [Internat. J. Tissue Reactions XI, 291 (1989)]. PMNs were incubated along with phorbol myristate acetate (PMA) (200ng/mL), which acts as a soluble stimulus, and rrIFN-γ (1000 Units/mL), which act as a stimulatory lymphokine, in the presence of various concentrations of (1R,3S)-Cis-1-(9-adenyl)-3-hydroxy-4-cyclopentene (0 to 1000µM). The degree of macrophage priming was measured using the Superoxide Anion (O₂⁻) assay as described by Edwards et al. [Science 239, 769 (1988)].

For `Nc1ncnc2c1ncn2[C@H]1C=C[C@@H](O)C1` [Example 1, (1R,3S)-Cis-1-(9-adenyl)-3-hydroxy-4-cyclopentene hydrochloride], the figures for the IC50 (in test [1]; in the test on rat PMNs) were 25 µM and 0.015 µM, respectively.
